Where “and” joins values, the source holds several entries; their conditions need not be identical. Equal entries are not always repeated.
Experiments:
MLK2/MAP3K10 = target: T1, MLK2/MAP3K10 (Homo sapiens, UniProt Q02779); assay: Kinase panel profiling; type: biochemical; conditions: 10 μM ATP
T1 construct: purchased Reaction Biology Corp
Procedure: (§1) Kinase panel profiling was conducted by Reaction Biology Corp. (San Diego, CA, USA). A single dose (1.0 μM) of 6r was tested against 371 recombinant human kinases in the presence of 10 μM ATP.

FGFR1 = target: T2, FGFR1 (Homo sapiens, UniProt P11362); assay: Kinase panel profiling; type: biochemical; conditions: 10 μM ATP
T2 construct: purchased Reaction Biology Corp
Procedure: as §1

MEKK2 = target: T3, MEKK2 (Homo sapiens, UniProt Q9Y2U5); assay: Kinase panel profiling; type: biochemical; conditions: 10 μM ATP
T3 construct: purchased Reaction Biology Corp
Procedure: as §1

c-Src = target: T4, c-Src (Homo sapiens, UniProt P12931); assay: Kinase panel profiling; type: biochemical; conditions: 10 μM ATP
T4 construct: purchased Reaction Biology Corp
Procedure: as §1

WNK2 = target: T5, WNK2 (Homo sapiens, UniProt Q9Y3S1); assay: Kinase panel profiling; type: biochemical; conditions: 10 μM ATP
T5 construct: purchased Reaction Biology Corp
Procedure: as §1

PDGFRb = target: T6, PDGFRb (Homo sapiens, UniProt P09619); assay: Kinase panel profiling; type: biochemical; conditions: 10 μM ATP
T6 construct: purchased Reaction Biology Corp
Procedure: as §1

NEK1 = target: T7, NEK1 (Homo sapiens, UniProt Q96PY6); assay: Kinase panel profiling; type: biochemical; conditions: 10 μM ATP
T7 construct: purchased Reaction Biology Corp
Procedure: as §1

DYRK3 = target: T8, DYRK3 (Homo sapiens, UniProt O43781); assay: Kinase panel profiling; type: biochemical; conditions: 10 μM ATP
T8 construct: purchased Reaction Biology Corp
Procedure: as §1

TTBK1 = target: T9, TTBK1 (Homo sapiens, UniProt Q5TCY1); assay: Kinase panel profiling; type: biochemical; conditions: 10 μM ATP
T9 construct: purchased Reaction Biology Corp
Procedure: as §1

PKA = target: T10, PKA (Homo sapiens, UniProt P17612); assay: Kinase panel profiling; type: biochemical; conditions: 10 μM ATP
T10 construct: purchased Reaction Biology Corp
Procedure: as §1

SRMS = target: T11, SRMS (Homo sapiens, UniProt Q9H3Y6); assay: Kinase panel profiling; type: biochemical; conditions: 10 μM ATP
T11 construct: purchased Reaction Biology Corp
Procedure: as §1

SRPK1 = target: T12, SRPK1 (Homo sapiens, UniProt Q96SB4); assay: Kinase panel profiling; type: biochemical; conditions: 10 μM ATP
T12 construct: purchased Reaction Biology Corp
Procedure: as §1

TAK1 = target: T13, TAK1 (Homo sapiens, UniProt O43318); assay: Kinase panel profiling; type: biochemical; conditions: 10 μM ATP
T13 construct: purchased Reaction Biology Corp
Procedure: as §1

EPHA5 = target: T14, EPHA5 (Homo sapiens, UniProt P54756); assay: Kinase panel profiling; type: biochemical; conditions: 10 μM ATP
T14 construct: purchased Reaction Biology Corp
Procedure: as §1

RSK1 = target: T15, RSK1 (Homo sapiens, UniProt Q15418); assay: Kinase panel profiling; type: biochemical; conditions: 10 μM ATP
T15 construct: purchased Reaction Biology Corp
Procedure: as §1

ARAF = target: T16, ARAF (Homo sapiens, UniProt P10398); assay: Kinase panel profiling; type: biochemical; conditions: 10 μM ATP
T16 construct: purchased Reaction Biology Corp
Procedure: as §1

p70S6K/RPS6KB1 = target: T17, p70S6K/RPS6KB1 (Homo sapiens, UniProt P23443); assay: Kinase panel profiling; type: biochemical; conditions: 10 μM ATP
T17 construct: purchased Reaction Biology Corp
Procedure: as §1

ERN2/IRE2 = target: T18, ERN2/IRE2 (Homo sapiens, UniProt Q76MJ5); assay: Kinase panel profiling; type: biochemical; conditions: 10 μM ATP
T18 construct: purchased Reaction Biology Corp
Procedure: as §1

IRAK1 = target: T19, IRAK1 (Homo sapiens, UniProt P51617); assay: Kinase panel profiling; type: biochemical; conditions: 10 μM ATP
T19 construct: purchased Reaction Biology Corp
Procedure: as §1

CDK7/cyclin H = target: T20, CDK7/cyclin H (Homo sapiens, UniProt P50613); assay: Kinase panel profiling; type: biochemical; conditions: 10 μM ATP
T20 construct: purchased Reaction Biology Corp
Procedure: as §1

DYRK4 = target: T21, DYRK4 (Homo sapiens, UniProt Q9NR20); assay: Kinase panel profiling; type: biochemical; conditions: 10 μM ATP
T21 construct: purchased Reaction Biology Corp
Procedure: as §1

[1] = test system: c-KIT auto-phosphorylation in c-KIT D816V Ba/F3 cells; assay: Western blot of c-KIT signaling; type: cell-based; conditions: 10 μM
Procedure: Cells were harvested and lysed using RIPA buffer containing 50 mM HEPES (pH 7.4), 1% Triton X-100, 2 mM EDTA, 150 mM NaCl, 2.5 mM NaF, 5 mM Na3VO4, and protease inhibitor cocktail tablet (Roche, # 11–878-580–001). Proteins were separated and transferred to an NC membrane. The membranes were blocked using 5% skim milk in TBS-T buffer. The p-c-KIT (Tyr703, # 3073), p-AKT (Ser473, # 9271), p-ERK (Thr202/Tyr204, # 8544), ERK (# 4695), p-PLCγ (Tyr783, # 14008), p-STAT3 (Tyr705, # 4074), and PARP (# 9542) antibodies were obtained from Cell Signaling Technologies. The β-actin (# sc-47778) and STAT3 (# sc-482) antibodies were obtained from Santa Cruz Biotechnology. AKT (A18120) antibody was purchased from ABclonal. Each primary antibody was incubated overnight at 4 °C. The secondary antibody (GenDEPOT) was incubated for 1 h at room temperature. Proteins were detected using ECL substrate.

GIST-T1 cells [2] = assay: Apoptosis analysis (annexinV/PI flow cytometry); type: cell-based, human; conditions: GIST-T1, 0.05 μM
Procedure: (§2) After compound treatment in GIST-T1 and HMC1.2 cells for 24 h, cells were fixed with 70% cold ethanol. Then, cells were incubated with 50 μg propidium iodide/mL solution (PI, Sigma) containing 1 mg RNase A/mL for 30 min in the dark. Cell cycle arrest was analyzed (BD Accuri), and data were processed using BD Accuri^TM C6 software. For apoptosis analysis, compound treatment for 24–48 h, cells were harvested and stained with annexinV and PI solution. 1 × 10^5 cells were analyzed using flow cytometric analysis.

HMC1.2 cells [3] = assay: Apoptosis analysis (annexinV/PI flow cytometry); type: cell-based, human; conditions: HMC1.2, 1 μM, 48 h
Procedure: as §2

GIST-T1 cells [4] = assay: Invasion assay (Transwell); type: cell-based, human; conditions: GIST-T1, 0.05 μM, 48 h
Procedure: The cell invasion assay was performed using Transwell membrane filter inserts (Corning Costar Corp., Corning, NY, USA). GIST-T1 cells were then suspended in serum-free DMEM at 2 × 10^6 cells and seeded in the upper chambers. In the lower chambers, the DMEM medium containing 10% FBS was added. After 48 h, the cells migrating down the membrane were stained with crystal violet.

GIST-T1 cells [5] = assay: Cell cycle arrest analysis (PI flow cytometry); type: cell-based, human; conditions: GIST-T1, 0.01 μM
Procedure: as §2

HMC1.2 cells [6] = assay: Cell cycle arrest analysis (PI flow cytometry); type: cell-based, human; conditions: HMC1.2, 0.5 μM, 24 h
Procedure: as §2

c-KIT V560G/D816V = target: T22, c-KIT V560G/D816V (Homo sapiens, UniProt P10721, D816V/V560G); assay: ADP-Glo kinase assay on c-KIT V560G/D816V; type: biochemical
T22 construct: purchased Promega VA7063
Procedure: Biochemical kinase assays on c-KIT protein kinase were performed at Reaction Biology Corp. (San Diego, CA, USA). […] The kinase assay followed the manufacturer’s instruction. IC50 values were calculated by GraphPad prism 8.0 software (GraphPad Software, San Diego, CA, USA).

Q: For Cc1ccc(NC(=O)c2ccc(CN3CCN(C)CC3)c(C(F)(F)F)c2)cc1-c1cnc2sc(N)nc2c1 [6r], which inhibition at 1 µM (MLK2/MAP3K10) is on record?
A: 13.4%

Q: And the inhibition at 1 µM (FGFR1)?
A: 20.7%

Q: What about the inhibition at 1 µM (MEKK2) of the same molecule?
A: 11.1%

Q: And the inhibition at 1 µM (c-Src)?
A: 68.7%

Q: And the inhibition at 1 µM (WNK2)?
A: 8.7%

Q: What about the inhibition at 1 µM (PDGFRb) of the same molecule?
A: 94.2%

Q: And the inhibition at 1 µM (NEK1)?
A: 2.6%

Q: And the inhibition at 1 µM (DYRK3)?
A: 0%

Q: What about the inhibition at 1 µM (TTBK1) of the same molecule?
A: 9.9%

Q: What about the inhibition at 1 µM (PKA) of the same molecule?
A: 5.3%

Q: And the inhibition at 1 µM (SRMS)?
A: 9.2%

Q: And the inhibition at 1 µM (SRPK1)?
A: 46.3%

Q: And the inhibition at 1 µM (TAK1)?
A: 12.8%

Q: What about the inhibition at 1 µM (EPHA5) of the same molecule?
A: 78.5%

Q: What about the inhibition at 1 µM (RSK1) of the same molecule?
A: 23.4%

Q: And the inhibition at 1 µM (ARAF)?
A: 98.3%

Q: And the inhibition at 1 µM (p70S6K/RPS6KB1)?
A: 8.4%

Q: And the inhibition at 1 µM (ERN2/IRE2)?
A: 12.9%

Q: What about the inhibition at 1 µM (IRAK1) of the same molecule?
A: 0%

Q: And the inhibition at 1 µM (CDK7/cyclin H)?
A: 3.2%

Q: And the inhibition at 1 µM (DYRK4)?
A: 0%

Q: And the c-KIT auto-phosphorylation [1]?
A: completely inhibited

Q: And the “production of apoptotic cells” value (GIST-T1 cells [2])?
A: remarkably induced

Q: And the “production of apoptotic cells” value (HMC1.2 cells [3])?
A: remarkably induced

Q: And the invasion capability (GIST-T1 cells [4])?
A: significantly suppressing

Q: What about the “G0/G1 arrest induced compared to control” value (GIST-T1 cells [5]) of the same molecule?
A: 25–35%

Q: What about the “G0/G1 arrest compared with imatinib” value (HMC1.2 cells [6]) of the same molecule?
A: more strongly

Q: And the IC50 (c-KIT V560G/D816V; ADP-Glo kinase assay, 10 μM ATP)?
A: 4.77 ± 0.38 µM

Q: What about the “fold higher enzymatic inhibitory activity against c-KIT V560G/D816V compared with imatinib” value (c-KIT V560G/D816V; versus imatinib) of the same molecule?
A: 4.9- to 8.0 fold and 8.0 fold

— publication PMC9817970 (Cancers, 2022)
